Data on 15 molecules can be found in US20150135829A1, “Levitation of Materials in Paramagnetic Ionic Liquids” (Presidents and Fellows of Harvard College, priority 2012, published 2015).

Structures are written as SMILES.

What all share (assay type): physicochemical
Data set [1] can be described thus: Density and magnetic susceptibility of paramagnetic ionic liquids from MagLev levitation height of density standard beads. The conditions noted are these: for ρ (density) / χ (magnetic susceptibility): calculated from levitation height vs density of standard beads (Mirica et al. JACS 2009 method); for Accessible Density Range: range of densities that can be levitated in MagLev. Here is the method:
The density of a diamagnetic object was determined, from its levitation height, by suspending the object in a container filled with paramagnetic ionic liquid and placed the container between two NdFeB magnets oriented with like poles facing each other (see FIG. 5). Before using the paramagnetic ionic liquids as liquids for density based measurement using Maglev, the density and magnetic susceptibility of each paramagnetic ionic liquid was first determined (examples shown in FIG. 6). These properties can be calculated from a plot of the levitation height of objects with known density versus their density using previously disclosed methods. See, e.g., Mirica et al. JACS, 2009, 10049. See also, FIGS. 7-9, Table 1.

Data set [2] is described as follows: Thermal stability by thermal gravimetric analysis (TGA). As for the experimental part: The change in weight as a function of temperature was monitored by heating the sample from room temperature to 700° C. at a ramp rate of 10° C./min.
(§1) Except for [BMIM][FeCl4], [GlyC2][FeCl2][BMIM]2[MnCl4], all paramagnetic ionic liquids were synthesized by mixing appropriate equivalents of the halide starting materials in methanol and allowed to stir overnight. The solvent was removed in vacuo affording paramagnetic ionic liquids in nearly quantitative yield. The synthesis of [BMIM][FeCl4], [GlyC2][FeCl4] was carried out by following reported literature procedure (Satoshi Hayashi and Hiro-o Hamaguchi Chemistry Letters 2004, 33 (12) 1590-1591; Masanari Okuno and Hiro-o Hamaguchi Applied Physics Letters 2006, 89, 132506). Specifically, BMIM Cl and FeCl3 were mixed together in a 1:1 molar ratio and stirred under nitrogen atmosphere. After stirring for 10 minutes at room temperature, BMIM FeCl4 was obtained as a brown colored ionic liquid. This procedure was also used for BMIM MnCl4 except that the mixture was gently heated at 60° C. for 5 minutes. The synthesized paramagnetic ionic liquids were characterized using elemental analysis (Robertson Microlit Labs, NJ). The glass transition temperature (Tg), melting point (Tm), and decomposition temperatures (Tdec) of the synthesized paramagnetic ionic liquids were obtained respectively using dynamic scanning calorimetry (DSC), and thermal gravimetric analysis (TGA).
The thermal stability of the paramagnetic ionic liquids was measured using thermal gravimetric analysis (TGA). Most paramagnetic ionic liquids were thermally stable to at least 300° C. (see FIG. 4). The melting points (Tm), glass transition (Tg) and decomposition temperatures (Tdec) of the synthesized paramagnetic ionic liquids is provided below.

Data set [3] in a line: Glass transition temperature by differential scanning calorimetry (DSC). The conditions noted are these: cooling from 20° C. to −75° C. at 10° C./minute, then heating. Here is the method: as §1, with “The glass transition temperature (Tg), melting point (Tm), and decomposition temperatures (Tdec) of the synthesized paramagnetic ionic liquids were obtained respectively using dynamic scanning calorimetry (DSC), and thermal gravimetric analysis (TGA).” left out
The glass transition temperatures and melting points of the synthesized paramagnetic ionic liquids were determined using differential scanning calorimetry (DSC) (see FIG. 3). […]
A general note: Differential scanning calorimetry records heat flow against a reference as temperature is scanned.

In the case of `COC(=O)[C@H](C)[NH3+].COC(=O)[C@H](C)[NH3+].[Cl][Mn-2]([Cl])([Cl])[Cl]` [[AlaC1]2 [MnCl4]], in data set [1], the “ρ (density)” value is 1.24 g/mL, the “χ (magnetic susceptibility)” value is recorded as 11.80 ×10^−4 and the “Accessible Density Range” value fell in the range of 0.63 to 1.86 g/mL.
For `COC(=O)[C@H](C)[NH3+].COC(=O)[C@H](C)[NH3+].COC(=O)[C@H](C)[NH3+].[Cl][Dy-3]([Cl])([Cl])([Cl])([Cl])[Cl]` [[AlaC1]3 [DyCl6]] the same measures were 1.41 g/mL, 9.58 ×10^−4 and 0.91 to 1.91 g/mL.
For `COC(=O)[C@H](C)[NH3+].COC(=O)[C@H](C)[NH3+].COC(=O)[C@H](C)[NH3+].[Cl][Gd-3]([Cl])([Cl])([Cl])([Cl])[Cl]` [[AlaC1]3 [GdCl6]] the same measures were 1.31 g/mL, 8.24 ×10^−4 and 0.89 to 1.74 g/mL.
For `COC(=O)[C@H](C)[NH3+].COC(=O)[C@H](C)[NH3+].COC(=O)[C@H](C)[NH3+].[Cl][Ho-3]([Cl])([Cl])([Cl])([Cl])[Cl]` [[AlaC1]3 [HoCl6]] the same measures were 1.42 g/mL, 9.70 ×10^−4 and 0.92 to 1.93 g/mL.
As to `COC(=O)[C@H](C)[NH3+].[Cl][Fe-]([Cl])([Cl])[Cl]` [[AlaC1] [FeCl4]], in data set [1], the “ρ (density)” value was 1.52 g/mL, the “χ (magnetic susceptibility)” value was 6.62 ×10^−4 and the “Accessible Density Range” value fell in the range of 1.15 to 1.93 g/mL.
For `CCCCCCCC[N+](C)(CCCCCCCC)CCCCCCCC.CCCCCCCC[N+](C)(CCCCCCCC)CCCCCCCC.[Cl][Mn-2]([Cl])([Cl])[Cl]` [[Aliq]2 [MnCl4]] the same measures were 0.96 g/mL, 1.85 ×10^−4 and 0.90 to 100 g/mL.
Regarding `CCCCCCCC[N+](C)(CCCCCCCC)CCCCCCCC.CCCCCCCC[N+](C)(CCCCCCCC)CCCCCCCC.CCCCCCCC[N+](C)(CCCCCCCC)CCCCCCCC.[Cl][Gd-3]([Cl])([Cl])([Cl])([Cl])[Cl]` [[Aliq]3 [GdCl6]], in data set [1], the “ρ (density)” value was 0.97 g/mL, the “χ (magnetic susceptibility)” value is listed as 0.55 ×10^−4 and the “Accessible Density Range” value was 0.95 to 0.99 g/mL.
For `CCCCCCCC[N+](C)(CCCCCCCC)CCCCCCCC.CCCCCCCC[N+](C)(CCCCCCCC)CCCCCCCC.CCCCCCCC[N+](C)(CCCCCCCC)CCCCCCCC.[Br][Ho-3]([Br])([Br])([Br])([Br])[Br]` [[Aliq]3 [HoBr6]], in data set [1], the “ρ (density)” value was 1.08 g/mL, the “χ (magnetic susceptibility)” value is recorded as 1.37 ×10^−4 and the “Accessible Density Range” value lay in the range of 1.01 to 1.15 g/mL. The “Tdec (decomposition temperature)” value in data set [2] was found to be 250 °C.
`CCCCCCCC[N+](C)(CCCCCCCC)CCCCCCCC.CCCCCCCC[N+](C)(CCCCCCCC)CCCCCCCC.CCCCCCCC[N+](C)(CCCCCCCC)CCCCCCCC.[Cl][Ho-3]([Cl])([Cl])([Cl])([Cl])[Cl]` [[Aliq]3 [HoCl6]]: in data set [1], the “ρ (density)” value was 0.95 g/mL, the “χ (magnetic susceptibility)” value is given as 1.94 ×10^−4 and the “Accessible Density Range” value is 0.85 to 1.05 g/mL.
For `CCCC[n+]1ccn(C)c1C.CCCC[n+]1ccn(C)c1C.CCCC[n+]1ccn(C)c1C.[Cl][Dy-3]([Cl])([Cl])([Cl])([Cl])[Cl]` [[BDMIM]3 [DyCl6]] the same measures were 1.23 g/mL, 3.49 ×10^−4 and 1.05 to 1.41 g/mL.
In the case of `CCCC[n+]1ccn(C)c1.CCCC[n+]1ccn(C)c1.[Cl][Mn-2]([Cl])([Cl])[Cl]` [[BMIM]2 [MnCl4]], in data set [1], the “ρ (density)” value was 1.24 g/mL, the “χ (magnetic susceptibility)” value is 2.75 ×10^−4 and the “Accessible Density Range” value was in the range of 1.09 to 1.37 g/mL. For the same molecule, the “Tdec (decomposition temperature)” value in data set [2] was determined as 300 °C. For the same molecule, in data set [3], the “Tg (glass transition temperature)” value is −40 °C.
For the molecule `CCCCn1cc[n+](C)c1.CCCCn1cc[n+](C)c1.CCCCn1cc[n+](C)c1.[Cl][Dy-3]([Cl])([Cl])([Cl])([Cl])[Cl]` [[BMIM]3 [DyCl6]], in data set [1], the “magnetic susceptibility (χ)” value is given as 12.4 ·10^−4, the “ρ (density)” value is 1.37 g/mL, the “χ (magnetic susceptibility)” value is 12.37 ×10^−4 and the “Accessible Density Range” value was 0.72 to 2.01 g/mL. The “Tdec (decomposition temperature)” value in data set [2] stood at 350 °C.
Turning to `CCCC[n+]1ccn(C)c1.CCCC[n+]1ccn(C)c1.CCCC[n+]1ccn(C)c1.[Cl][Ho-3]([Cl])([Cl])([Cl])([Cl])[Cl]` [[BMIM]3 [HoCl6]], in data set [1], the “ρ (density)” value is 1.29 g/mL, the “χ (magnetic susceptibility)” value is 5.40 ×10^−4 and the “Accessible Density Range” value was 1.30 to 1.35 g/mL.
For `CCCCn1cc[n+](C)c1.[Cl][Fe-]([Cl])([Cl])[Cl]` [[BMIM] [FeCl4]] the same measures were 1.39 g/mL, 8.28 ×10^−4 and 0.96 to 1.83 g/mL.
For the molecule `CCCCCCCCCCCCCC[P+](CCCCCC)(CCCCCC)CCCCCC.CCCCCCCCCCCCCC[P+](CCCCCC)(CCCCCC)CCCCCC.[Cl][Mn-2]([Cl])([Cl])[Cl]` [[PR4]2[MnCl4]], in data set [3], the “Tg (glass transition temperature)” value is −69 °C.
